Experiment [1] deals with serum LH. In words: Acute effect of intravenous injection on serum LH (radioimmunoassay). The format is in vivo. As to conditions: rats, intravenous 5.0 micrograms, as LH-RP-2 standard. The method, then: (§1) For intravenous peptide injections anesthetized rats were fitted surgically with indwelling intra-arterial cannulae 24 hours before the tests. The next day samples of arterial blood were withdrawn from the unanesthetized rats immediately before and after the injection of graded doses of the pineal antigonadotropin. Prolactin and LH were measured in the blood samples by standard double antibody radioimmunoassay with kits provided by the National Hormone and Pituitary Program. The acute effects of 5.0 micrograms of the antigonadotropin are illustrated in the table below:
(§2) Values for LH are expressed as the National Institutes of Health reference standard LH-RP-2. Means±S.E.M. are indicated (n=5)

The subject of experiment [2] is serum PRL. Kind of experiment: Acute effect of intravenous injection on serum PRL (radioimmunoassay). The format is in vivo. As to conditions: rats, intravenous 5.0 micrograms. On the procedure: as §1, §2
Experiment [3] has as its system rat hypothalamic median eminence strips. In words: Dopamine release from hypothalamic median eminence strips in vitro. Conditions: for Release of dopamine from rat hypothalamus in vitro (in words): median eminence strips. On the procedure:
Rat hypothalamic median eminence strips were rapidly dissected and placed in culture plates containing 100 μl of a Kreb's solution saturated with O2 in accord with the procedure described in Racke, K. and E. Muscholl, J. of Neurochemistry 46:745, 1986. The median eminence strips were maintained at 37° C. under 95% O2 /5%CO2 in a Dubnoff shaking incubator. The media were replaced after a ten minute pre-incubation period. 50 μl samples were taken at 30, 60 and 90 min of incubation for catecholamine determination, with replacement of the removed media. 20 μl of 0.1M perchloric acid were added to each sample before storage at -20°. Media contents of dopamine, norepinephrine and various indoleamine and catecholamine metabolites were determined by HPLC coupled with electrochemical detection in accord with the procedure described in Gregory, V. M., B. Larsen and B. Benson, J. of Chromatography 345:140-144,1985.

The subject of experiment [4] is anterior pituitary dopamine content. Kind of experiment: Acute effect of a single subcutaneous injection on anterior pituitary dopamine content. The format is in vivo. Conditions: mice; for Pituitary dopamine content: single subcutaneous injection of 25 nanograms.
In experiment [5] the test system is male and female rats and mice. Kind of experiment: Antigonadotropic effects after chronic daily subcutaneous injection. The format is in vivo. As to conditions: two to four weeks. On the procedure:
The neurotropic pineal antigonadotropin of the present invention was assayed in vivo, as is described below. Natural and synthetic analogs were injected into male and female rats and mice in graded doses. Antigonadotropic effects were assessed after a period of chronic daily subcutaneous injection in a variety of solvents/carriers, e.g. physiological saline or corn oil. […] Additionally, blood levels of the gonadal steroids (testosterone in males and estrogens in females) were reduced.

Experiment [6] relates to pituitary secretion of LH and PRL. Kind of experiment: Intravenous or intracerebroventricular injections: pituitary secretion of LH and PRL. The class given is in vivo.

Residues, ends and D or L forms follow the SMILES beside them. No end group written: not given here.

Consider `C[C@@H](O)[C@H](NC(=O)[C@H](CCCCN)NC(=O)[C@@H](NC(=O)[C@@H](NC(=O)[C@@H]1CCCN1C(=O)[C@H](Cc1ccccc1)NC(=O)[C@@H](N)CO)[C@@H](C)O)[C@@H](C)O)C(=O)N[C@@H](Cc1ccc(O)cc1)C(=O)N[C@@H](Cc1ccccc1)C(=O)N1CCC[C@H]1C(=O)O` [PAG (1), NH2 -Ser-Phe-Pro-Thr-Thr-Lys-Thr-Tyr-Phe-Pro-COOH] (H-SFPTTKTYFP-OH), for which the “Serum LH” value in experiment [1] (postinjection time 0') worked out at 0.25 ng/mL; in experiment [1] (postinjection time 15') it was 0.21 ng/mL; in experiment [1] (postinjection time 30') it was 0.15 ng/mL; in experiment [1] (postinjection time 45'), 0.10 ng/mL; in experiment [1] (postinjection time 60') it was 0.14 ng/mL. The “Serum PRL” value in experiment [2] (postinjection time 0') was 100 ± 11 % of Initial Control Value; in experiment [2] (postinjection time 15'), 55 ± 6 % of Initial Control Value; in experiment [2] (postinjection time 30') it was 38 ± 6 % of Initial Control Value; in experiment [2] (postinjection time 45'), 31 ± 4 % of Initial Control Value; in experiment [2] (postinjection time 60'), 22 ± 5 % of Initial Control Value.

`C[C@@H](O)[C@H](NC(=O)[C@H](CCCCN)NC(=O)[C@@H](NC(=O)[C@@H](NC(=O)[C@@H]1CCCN1C(=O)[C@H](Cc1ccccc1)NC(=O)[C@@H](N)CO)[C@@H](C)O)[C@@H](C)O)C(=O)N[C@@H](Cc1ccc(O)cc1)C(=O)N[C@@H](Cc1ccccc1)C(=O)N1CCC[C@H]1C(=O)O` [PAG (2), NH2 -Ser-Phe-Pro-Thr-Thr-Lys-Thr-Tyr-Phe-Pro-COOH] (H-SFPTTKTYFP-OH): the “Serum LH” value was 0.26 ng/mL in experiment [1] (postinjection time 0'); 0.20 ng/mL in experiment [1] (postinjection time 15'); 0.15 ng/mL in experiment [1] (postinjection time 30'); 0.12 ng/mL in experiment [1] (postinjection time 45'); 0.11 ng/mL in experiment [1] (postinjection time 60'). Besides, the “Serum PRL” value is listed as 100 ± 8 % of Initial Control Value in experiment [2] (postinjection time 0'); 44 ± 6 % of Initial Control Value in experiment [2] (postinjection time 15'); 30 ± 3 % of Initial Control Value in experiment [2] (postinjection time 30'); 25 ± 3 % of Initial Control Value in experiment [2] (postinjection time 45'); 32 ± 6 % of Initial Control Value in experiment [2] (postinjection time 60'). Moreover, the “Release of dopamine from rat hypothalamus in vitro (in words)” value in experiment [3] (listed as synthetic decapeptide) is reported as “effectively stimulates the release of dopamine into the incubation medium”.

Turning to “SFPTTKTYFP [PAG, NH2 -Ser-Phe-Pro-Thr-Thr-Lys-Thr-Tyr-Phe-Pro-COOH]”, the “Anterior pituitary dopamine content (in words)” value in experiment [4] (single injection of 25 nanograms) is “significant increase in anterior pituitary dopamine content”. In addition, the Pituitary dopamine content in experiment [4] (postinjection time 0') is 0.539 ± 0.046 nanograms per mg of pituitary; in experiment [4] (postinjection time 15') it was 0.795 ± 0.064 nanograms per mg of pituitary; in experiment [4] (postinjection time 30') it was 1.801 ± 0.126 nanograms per mg of pituitary. In addition, the “Dopamine released into the incubation medium (accumulative)” value in experiment [3] (10^-5 M, incubation time 30') came out at 35.2 ± 7.6 pg/µL; in experiment [3] (10^-5 M, incubation time 60'), 100.2 ± 13 pg/µL; in experiment [3] (10^-5 M, incubation time 90') it was 182.9 ± 13.7 pg/µL; in experiment [3] (10^-7 M, incubation time 30'), 27.2 ± 2.1 pg/µL; in experiment [3] (10^-7 M, incubation time 60') it was 61.5 ± 5.3 pg/µL; in experiment [3] (10^-7 M, incubation time 90'), 109.3 ± 10.8 pg/µL. Besides, the “Release of dopamine from rat hypothalamus in vitro (in words)” value in experiment [3] (listed as pineal antigonadotropic decapeptide) is given as “stimulates the release of dopamine”. For the same molecule, in experiment [5], the “Pituitary and blood levels of gonadotropins and prolactin” value is “reductions of pituitary and blood levels of gonadotropins and prolactin”. The “Pituitary, gonadal and accessory reproductive organ weights” value in experiment [5] was “significant reductions in pituitary, gonadal and accessory reproductive organ weights”. In addition, the “Release of pituitary LH (pulsatile)” value in experiment [6] (intracerebroventricular infusions) was “inhibited release of pituitary LH, reducing both the amplitude and frequency of pulsatile LH release into the blood”. The “Pituitary secretion of LH and PRL” value in experiment [6] (intravenous or intracerebroventricular injections) was “demonstrable inhibitory effects on pituitary secretion of LH and PRL”.

The values above are taken from patent US5382568A, “Decapeptide having dopamine stimulating activity” (Arizona Board of Regents, priority 1993, dated 1995).
